Source: patent US10626112B2, “Heterocyclic sulfonamide derivative and medicine comprising same” (EA PHARMA CO., LTD., priority 2014, dated 2020)

Each compound was assayed against human TRPA1 (Homo sapiens (Human), UniProt O75762) (assay: Measurement of TRPA1 antagonist activity (1): intracellular calcium increase). Settings: 293T cells transfected with human TRPA1 expression plasmid; allylisothiocyanate 20 μM stimulation; intracellular calcium fluorescence; read-out: hTRPA1 IC50.
Sequence of human TRPA1 (O75762 whole entry): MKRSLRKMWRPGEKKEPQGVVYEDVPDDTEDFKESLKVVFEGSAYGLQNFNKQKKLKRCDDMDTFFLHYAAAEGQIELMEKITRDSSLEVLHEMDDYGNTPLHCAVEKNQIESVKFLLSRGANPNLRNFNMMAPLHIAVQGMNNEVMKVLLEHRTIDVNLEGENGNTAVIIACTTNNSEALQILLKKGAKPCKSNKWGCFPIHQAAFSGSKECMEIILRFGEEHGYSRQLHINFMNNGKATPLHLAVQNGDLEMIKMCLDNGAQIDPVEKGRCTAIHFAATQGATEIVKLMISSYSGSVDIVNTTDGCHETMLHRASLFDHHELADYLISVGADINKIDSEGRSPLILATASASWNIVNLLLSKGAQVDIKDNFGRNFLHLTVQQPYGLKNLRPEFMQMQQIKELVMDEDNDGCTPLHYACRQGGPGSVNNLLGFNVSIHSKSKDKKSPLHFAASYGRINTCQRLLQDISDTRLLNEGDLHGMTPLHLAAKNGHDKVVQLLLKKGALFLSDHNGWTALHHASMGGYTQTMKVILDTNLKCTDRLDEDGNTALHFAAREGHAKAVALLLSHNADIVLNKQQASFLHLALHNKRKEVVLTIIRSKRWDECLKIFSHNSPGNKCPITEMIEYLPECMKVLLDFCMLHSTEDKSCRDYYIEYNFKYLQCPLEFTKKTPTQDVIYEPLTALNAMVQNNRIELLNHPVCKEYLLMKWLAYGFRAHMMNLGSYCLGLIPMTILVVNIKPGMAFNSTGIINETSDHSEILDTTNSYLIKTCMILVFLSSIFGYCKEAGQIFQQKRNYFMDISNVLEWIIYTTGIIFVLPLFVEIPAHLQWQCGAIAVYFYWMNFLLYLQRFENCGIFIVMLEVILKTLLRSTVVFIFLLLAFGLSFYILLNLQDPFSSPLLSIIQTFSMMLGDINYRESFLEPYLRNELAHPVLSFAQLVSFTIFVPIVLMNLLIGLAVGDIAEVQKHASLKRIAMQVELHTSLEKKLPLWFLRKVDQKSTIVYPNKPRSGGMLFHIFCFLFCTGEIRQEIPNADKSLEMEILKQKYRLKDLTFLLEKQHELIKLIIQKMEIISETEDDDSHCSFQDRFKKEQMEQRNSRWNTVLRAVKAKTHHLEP
Assay type: cell-based
From the text: Measurement of TRPA1 Antagonist Activity (1)
Human TRPA1 Expression Plasmid
As cDNA encoding human TRPA1 (GenBank accession No. […]), a commercially available product was purchased (manufactured by Kazusa DNA Research Institute, clone No.: pFN21AB7348, item No.: FHC07217). Using this as a template, full-length human TRPA1 gene was amplified using the primer sequences shown below, by reaction using DNA polymerase (manufactured by Stratagene, trade name: PfuUltra High-Fidelity DNA Polymerase).
A recognition site (underlined) of restriction enzyme HindIII was added to the 5′ side, and XbaI site (underlined) was added to the 3′ side, and GTT of the template sequence was changed to termination codon TAG (bold). The obtained double stranded DNA was enzyme-digested with HindIII and XbaI, and introduced into the multicloning site of expression plasmid pcDNA3.1/zeo(+) (manufactured by Invitrogen) to construct a human TRPA1 expression plasmid.
Human embryonic kidney-derived 293T cells were cultured in Dulbecco's Modified Eagle Medium containing 10% fetal bovine serum, 10 unit penicillin, and 10 μg streptomycin, plated on a petri dish having a diameter of 10 cm at 3×10^6 cells, and cultured for 24 hr in a CO2 incubator. A reduced serum medium (manufactured by Invitrogen, trade name: OPTI-MEM, 600 μL), a gene transfer reagent (manufactured by Mirus Bio, trade name: Mirus TransIT-293, 18 μL), and human TRPA1 expression plasmid (6 μg) were mixed, the total amount of the mixture was added to the cells on the petri dish to allow for gene transfer. The cells were recovered about for 8 hr later, plated on a poly-D-lysine coated 384 well black/clear bottom plate at 12,000 cells/well, and cultured overnight.
Measurement of Intracellular Calcium Increase
The 384 well plate was recovered, and the medium was removed. A calcium-bonded fluorescent indicator (manufactured by Molecular Device, trade name: Calcium4 Assay Kit, 38 μL) dissolved in assay buffer (1×HBSS, 20 mM HEPES, pH 7.2) was added, and the cells were stained in a CO2 incubator for 1 hr. The cells were taken out at room temperature, stood for not less than 15 min, a test substance (10 μL) was added by a platereader FDSS7000 (Hamamatsu Photonics K.K.) equipped with a 384ch dispenser. After 10 min, allylisothiocyanate (12 μL) was further added at a final concentration of 20 μM, and changes in the relative fluorescence intensity after addition of allylisothiocyanate were measured for 5 min.
Test Substance Preparation
The test substance was dissolved in dimethyl sulfoxide and serially diluted with an assay buffer containing 0.1% bovine serum albumin (1×HBSS, 20 mM HEPES, pH 7.2) to a 4.8-fold concentration of the evaluation concentration. Allylisothiocyanate, which is a known TRPA1 activator, was dissolved in dimethyl sulfoxide to 100 mM, and further diluted 5-fold (100 μM) of the final concentration, like the test substance.
Calculation of Antagonist Activity
Under the test substance-free conditions, the maximum variation range of the fluorescence intensity before and after allylisothiocyanate stimulation was defined to be 100% activity rate, and the variation range before and after buffer stimulation was defined as 0% activity rate. The activity rate on addition of the test substance was determined, and the numerical value obtained by subtracting the activity rate from 100 was defined to be an inhibitory rate. IC50, which is the concentration of the test substance necessary for reaching the 50% inhibitory rate, was calculated from the sigmoid approximate curve by a spreadsheet software Excel-Fit.
With `O=C(NCc1cccc(-c2ccc(C(F)(F)F)nc2)c1)[C@@H]1[C@@H](O)CCN1S(=O)(=O)c1cc2cc(F)ccc2o1` [Example 93, (2S,3S)-1-(5-fluorobenzofuran-2-yl)sulfonyl-3-hydroxy-N-[[3-[6-(trifluoromethyl)-3-pyridyl]phenyl]methyl]pyrrolidine-2-carboxamide] the IC50 was 23 nM.
With `O=C(NCc1ccnc(-c2cc3ccccc3[nH]2)c1)[C@@H]1CCCN1S(=O)(=O)c1cc2ccccc2o1` [Example 176, (2S)-1-(benzofuran-2-ylsulfonyl)-N-[[2-(1H-indol-2-yl)-4-pyridyl]methyl]pyrrolidine-2-carboxamide] the IC50 was 320 nM.
`C[C@H](NS(=O)(=O)c1cc2cc(F)ccc2o1)C(=O)NCc1cccc(-c2ccc(C(F)(F)F)nn2)c1` [Example 235, (2S)-2-[(5-fluorobenzofuran-2-yl)sulfonylamino]-N-[[3-[6-(trifluoromethyl)pyridazin-3-yl]phenyl]methyl]propanamide] showed an IC50 of 20 nM.
For `O=C(NCc1cncc(-c2ccc(C(F)(F)F)nc2)c1)[C@@H]1CCCN1S(=O)(=O)c1cc2ccccc2o1` [Example 86, (2S)-1-(benzofuran-2-ylsulfonyl)-N-[[5-[6-(trifluoromethyl)-3-pyridyl]-3-pyridyl]methyl]pyrrolidine-2-carboxamide], the IC50 was 20 nM.
For `O=C(NCc1cccc(Oc2ccc(C(F)(F)F)cc2)c1)[C@@H]1CCCN1S(=O)(=O)c1cc2ccccc2o1` [Example 52, (2S)-1-(benzofuran-2-ylsulfonyl)-N-[[3-[4-(trifluoromethyl)phenoxy]phenyl]-methyl]pyrrolidine-2-carboxamide], the IC50 was 32 nM.
`C[C@H](NS(=O)(=O)c1cc2ccccc2o1)C(=O)NCc1cc(-c2ccc(OC(F)(F)F)cc2)ncn1` [Example 231, (2S)-2-(benzofuran-2-ylsulfonylamino)-N-[[6-[4-(trifluoromethoxy)phenyl]-pyrimidin-4-yl]methyl]propanamide] was tested, and the IC50 was 14 nM.
Work on `O=C(NCc1cccc(CNc2ccc(C(F)(F)F)cn2)c1)[C@@H]1CCCN1S(=O)(=O)c1cc2ccccc2o1` [Example 320, (2S)-1-(benzofuran-2-ylsulfonyl)-N-[[3-[[[5-(trifluoromethyl)-2-pyridyl]amino]methyl]phenyl]methyl]pyrrolidine-2-carboxamide] yielded an IC50 of 920 nM.
Work on `O=C(NCc1cccc(-c2ccccc2O)n1)[C@@H]1CCCN1S(=O)(=O)c1cc2cc(F)ccc2o1` [Example 143, (2S)-1-(5-fluorobenzofuran-2-yl)sulfonyl-N-[[6-(2-hydroxyphenyl)-2-pyridyl]methyl]pyrrolidine-2-carboxamide] yielded an IC50 of 260 nM.
`O=C(NCc1cc(/C=C/C2CC2)ccn1)[C@@H]1CCCN1S(=O)(=O)c1cc2ccccc2o1` [Example 282, (2S)-1-(benzofuran-2-ylsulfonyl)-N-[[4-[(E)-2-cyclopropylvinyl]-2-pyridyl]methyl]pyrrolidine-2-carboxamide] gave an IC50 of 250 nM.
Compound `N#Cc1cccc(COc2cccc(CNC(=O)[C@@H]3CCCN3S(=O)(=O)c3cc4ccccc4o3)c2)c1` [Example 2, (2S)-1-(benzofuran-2-ylsulfonyl)-N-[[3-[(3-cyanophenyl)methoxy]phenyl]methyl]pyrrolidine-2-carboxamide] has an IC50 of 7.9 nM.
Work on `O=C(NCc1cc(-c2ccc(C(F)(F)F)cn2)ccn1)[C@@H]1CCCN1S(=O)(=O)c1cc2cnccc2o1` [Example 272, (2S)-1-furo[3,2-c]pyridin-2-ylsulfonyl-N-[[4-[5-(trifluoromethyl)-2-pyridyl]-2-pyridyl]methyl]pyrrolidine-2-carboxamide] yielded an IC50 of 12 nM.
In the case of `O=C(NCc1cccc([S+]([O-])c2ccc(C(F)(F)F)cc2)c1)[C@@H]1CCCN1S(=O)(=O)c1cc2ccccc2o1` (stereo partly drawn) [Example 323, (2S)-1-(benzofuran-2-ylsulfonyl)-N-[[3-[4-(trifluoromethyl)phenyl]sulfinylphenyl]methyl]pyrrolidine-2-carboxamide], the IC50 is reported as 200 nM.
`O=C(NCc1cccc(-c2ncc(C(F)(F)F)cn2)c1)[C@@H]1CCCN1S(=O)(=O)c1cc2ccccc2o1` [Example 194, (2S)-1-(benzofuran-2-ylsulfonyl)-N-[[3-[5-(trifluoromethyl)pyrimidin-2-yl]phenyl]-methyl]pyrrolidine-2-carboxamide] gave an IC50 of 10 nM.
With `O=C(NCc1ccnc(-c2ccccc2O)c1)[C@@H]1CCCN1S(=O)(=O)c1cc2cc(F)ccc2o1` [Example 135, (2S)-1-(5-fluorobenzofuran-2-yl)sulfonyl-N-[[2-(2-hydroxyphenyl)-4-pyridyl]methyl]pyrrolidine-2-carboxamide] the IC50 was 30 nM.
In the case of `CC(C)(C)OC(=O)Nc1ccccc1-c1cc(CNC(=O)[C@@H]2CCCN2S(=O)(=O)c2cc3ccccc3o2)ccn1` [Example 276, N-[2-[4-[[[(2S)-1-(benzofuran-2-ylsulfonyl)pyrrolidine-2-carbonyl]amino]methyl]-2-pyridyl]phenyl]carbamic acid tert-butyl], the IC50 is reported as 150 nM.
Compound `Cn1nc(C(F)(F)F)cc1-c1ccnc(CNC(=O)[C@@H]2CCCN2S(=O)(=O)c2cc3ccccc3o2)c1` [Example 154, (2S)-1-(benzofuran-2-ylsulfonyl)-N-[[4-[2-methyl-5-(trifluoromethyl)pyrazol-3-yl]-2-pyridyl]methyl]pyrrolidine-2-carboxamide] has an IC50 of 42 nM.
Compound `O=C(NCc1cc(-c2ccc(C(F)(F)F)cc2)ccn1)[C@@H]1CCCN1S(=O)(=O)c1cc2cc(F)ccc2o1` [Example 148, (2S)-1-(5-fluorobenzofuran-2-yl)sulfonyl-N-[[4-[4-(trifluoromethyl)phenyl]-2-pyridyl]methyl]pyrrolidine-2-carboxamide] has an IC50 of 2.2 nM.
Work on `O=C(NCc1cccc(OCc2ccccc2)c1)[C@@H]1CCCN1S(=O)(=O)c1cc2ccccc2o1` [Example 37, (2S)-1-(benzofuran-2-ylsulfonyl)-N-[(3-benzyloxyphenyl)methyl]pyrrolidine-2-carboxamide] yielded an IC50 of 14 nM.
In the case of `Cn1nc(C(F)(F)F)cc1-c1cc(CNC(=O)[C@@H]2CCCN2S(=O)(=O)c2cc3ccccc3o2)ccn1` [Example 127, (2S)-1-(benzofuran-2-ylsulfonyl)-N-[[2-[2-methyl-5-(trifluoromethyl)pyrazol-3-yl]-4-pyridyl]methyl]pyrrolidine-2-carboxamide], the IC50 is reported as 25 nM.
`N#Cc1ccc(-c2cncc(CNC(=O)[C@@H]3CCCN3S(=O)(=O)c3cc4cc(F)ccc4o3)c2)cc1` [Example 142, (2S)-N-[[5-(4-cyanophenyl)-3-pyridyl]methyl]-1-(5-fluorobenzofuran-2-yl)sulfonyl-pyrrolidine-2-carboxamide] was tested, and the IC50 was 24 nM.
In the case of `CNc1nc(CNC(=O)[C@@H]2CCCN2S(=O)(=O)c2cc3ccccc3o2)cc(-c2ccc(C(F)(F)F)cc2)n1` [Example 326, (2S)-1-(benzofuran-2-ylsulfonyl)-N-[[2-(methylamino)-6-[4-(trifluoromethyl)phenyl]pyrimidin-4-yl]methyl]pyrrolidine-2-carboxamide], the IC50 is reported as 29 nM.
In the case of `O=C(NCc1ccc(Oc2ccnc(C(F)(F)F)c2)cc1)[C@@H]1CCCN1S(=O)(=O)c1cc2cc(F)ccc2o1` [Example 56, (2S)-1-(5-fluorobenzofuran-2-yl)sulfonyl-N-[[4-[[2-(trifluoromethyl)-4-pyridyl]oxy]phenyl]methyl]-pyrrolidine-2-carboxamide], the IC50 is reported as 21 nM.
Work on `O=C(NCc1ccnc(-c2ccccc2O)c1)[C@@H]1CCCN1S(=O)(=O)c1cc2ccccc2o1` [Example 120, (2S)-1-(benzofuran-2-ylsulfonyl)-N-[[2-(2-hydroxyphenyl)-4-pyridyl]methyl]pyrrolidine-2-carboxamide] yielded an IC50 of 180 nM.
For `C[C@H](NS(=O)(=O)c1cc2cc(F)ccc2o1)C(=O)NCc1cccc(-c2cnc(C(F)(F)F)cn2)c1` [Example 234, (2S)-2-[(5-fluorobenzofuran-2-yl)sulfonylamino]-N-[[3-[5-(trifluoromethyl)pyrazin-2-yl]phenyl]methyl]propanamide], the IC50 was 34 nM.
